Measurements taken from US20250382346A1, “NEURONAL PROMOTERS AND USES THEREOF” (priority 2023, published 2025).

Biological target: T1, rM3Ds (Rattus norvegicus, UniProt P08483, A177S/A238G/A489L/DEL261-437/DEL441-478/E258S/I253V/I483M/INS256[…]/K178L/K182A/K255R/K484R/K486H/L173F/L482A/M480V/R171S/R176Q/R179M/S481M/T174R/T181R/T257A/Y148C)
T1 sequence (P08483 with tags, fused parts or gaps Y148C/R171S/L173F/T174R/R176Q/A177S/K178L/R179M/T181R/K182A/A238G/I253V/K255R/INS256[…]/T257A/E258S/DEL261-437/DEL441-478/M480V/S481M/L482A/I483M/K484R/K486H/A489L): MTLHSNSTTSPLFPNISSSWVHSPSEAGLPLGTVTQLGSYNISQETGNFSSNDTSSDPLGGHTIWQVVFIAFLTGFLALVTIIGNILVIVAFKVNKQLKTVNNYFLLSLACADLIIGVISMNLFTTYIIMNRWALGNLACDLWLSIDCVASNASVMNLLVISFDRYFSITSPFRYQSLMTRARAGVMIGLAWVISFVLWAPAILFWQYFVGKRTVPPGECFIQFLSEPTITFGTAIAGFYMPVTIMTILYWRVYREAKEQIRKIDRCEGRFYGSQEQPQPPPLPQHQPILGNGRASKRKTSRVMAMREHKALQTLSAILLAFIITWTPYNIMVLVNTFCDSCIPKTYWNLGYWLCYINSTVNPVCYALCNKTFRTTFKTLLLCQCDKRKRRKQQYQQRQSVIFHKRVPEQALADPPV
Assay: 6-OHDA parkinsonian mouse model: open field and rotarod
Assay type: in vivo
Design: 2A-EYFP (C); expressed in transfected cells; host or cells: neurons (striatal D1-MSNs) of mice or cynomolgus macaques, transduced in vivo by nigral AAV8R12-G88P7-rM3Ds-2A-EYFP
Conditions: AAV8R12-G88P7-rM3Ds-2A-EYFP, 6-OHDA mice
Experimental: Rodent Parkinson's disease mice models were created through bilateral injection of 6-OHDA using the same methods as described in virus injections (Example 3). A total volume of 1 ul 6-OHDA (5 mg/ml, dissolved in sterile saline containing 0.02% ascorbic acid, Sigma) was injected into the striatum at a speed of 100 nL/min. The coordinates for striatum were 0.5 mm anterior, 1.5 mm lateral, 3.2 mm ventral to the bregma. A premedication of desipramine (25 mg/kg, Sigma) was administered to animals prior to injections of 6-OHDA, in order to increase the selectivity and efficacy of 6-OHDA-induced lesions. Mice were supplemented with DietGel (ClearH2O) for one-week post-surgery. All staining and behavioral experiments were performed at least 14 days following surgery, when the amount of dopamine depletion was maximal and stable.
To investigate the efficacy and safety of D1-MSN specific neuromodulation strategy, AAV8R12-G88P7-rM3Ds-2A-EYFP was injected into the SNr of adult C57/BL6 mice. 6-OHDA was administered bilaterally into the striatum (FIG. 13A). […]
Mice were individually handled for 10-20 seconds per day for at least 5 days to habituate them to the experimenter. […] The behavioral data were analyzed with ANY-maze software (Stoelting Co.).
Mice were individually handled as described in the open field test. […] Latency to fall for each trial was automatically recorded by the apparatus. […]

C[N+]1([O-])CCN(C2=Nc3cc(Cl)ccc3Nc3ccccc32)CC1 [CNO, Clozapine-N-oxide]
motor skill, rotarod test (CNO): partially rescued the motor skill deficit
spontaneous movement in an open field (systemic CNO): drastically reversed the dyskinesia-like phenotype of PD mice
